The values that follow come from US11020399B2, “Intermediates useful in the synthesis of compounds as modulators of protein kinases” (Rhizen Pharmaceuticals SA, priority 2011, dated 2021).

Holding throughout (assay type): biochemical
Test [1] deals with PI3kα (Homo sapiens, UniProt P42336). Description: Fluorescent (HTRF) determination of PI3 kinase enzyme activity, PI3Kα. An excerpt:
(§1) Assay 1: Fluorescent Determination of PI3Kinase Kinase Enzyme Activity
(§2) Phosphoinositide 3 kinases (PI3K) belong to a class of lipid kinases that play a critical role in the regulation of several key cellular processes. The PI3K are capable of phosphorylating the 3-hydroxy position of phosphoinositols thereby generating second messengers involved in downstream signalling events. The homogenous time resolved fluorescence (HTRF) assay allows detection of 3,4,5-triphosphate (PIP3) formed as a result of phosphorylation of phosphotidylinositol 4,5-biphosphate (PIP2) by PI3K isoforms such as α, β, γ or δ. PI3K isoform activity for a, p, y or 8 was determined using a PI3K human HTRF™ Assay Kit (Millipore, Billerica, Mass.) with modifications. All incubations were carried out at room temperature. Briefly, 0.5 μl of 40× inhibitor (in 100% DMSO) or 100% DMSO were added to each well of a 384-well black plate (Greiner Bio-One, Monroe, N.C.) containing 14.5 μl IX reaction buffer /PIP2 (10 mM MgCl2, 5 mM DTT, 1.38 μM PIP2) mix with or without enzyme and incubated for 10 min. After the initial incubation, 5 μl/well of 400 μM ATP was added and incubated for an additional 30 minutes. Reaction was terminated by adding 5 μl/well stop solution (Millipore, Billerica, Mass.). Five microliters of detection mix (Millipore, Billerica, Mass.) were then added to each well and was incubated for 6-18 h in the dark. HRTF ratio was measured on a microplate reader (BMG Labtech., Germany) at an excitation wavelength of 337 nm and emission wavelengths of 665 and 620 nm with an integration time of 400 μsec.
(§3) Data were analyzed using Graphpad Prism (Graphpad software; San Diego Calif.) for IC50 determination. Examples 1-59 were tested at 1 uM for Pi3kα & Pi3k β and at 0.3 uM for γ and δ. Examples 60-137 were tested at 1 uM for Pi3kα & Pi3k β and at 0.1 uM for γ and δ. Percent inhibition was calculated based on the values for the blank and enzyme controls. The results are as provided in Table 2 (wherein D=0 to 25%; C=>25 to 50%; B=>50 to 75%; A=>75 to 100%; +++++=≤50 nM; ++++=>50 to ≤100 nM; +++=>100 to ≤300 nM; ++=>300 to ≤500 nM; +=>500 nM)

Test [2] concerns the target PI3kγ (Homo sapiens, UniProt P48736). Briefly: Fluorescent (HTRF) determination of PI3 kinase enzyme activity, PI3Kγ. Particulars: for inhibition at 0.3 µM: 300 nM (Examples 1-59).
Excerpt: as §1, §2, §3

Test [3] concerns the target PI3kδ (Homo sapiens, UniProt O00329). Description: Fluorescent (HTRF) determination of PI3 kinase enzyme activity, PI3Kδ. Particulars: for inhibition at 0.3 µM: 300 nM (Examples 1-59).
Excerpt: as §1, §2, §3

For test [4], the target named is PI3kβ (Homo sapiens, UniProt P42338). Description: Fluorescent (HTRF) determination of PI3 kinase enzyme activity, PI3Kβ.
Excerpt: as §1, §2, §3

The mark [5] stands for this setting: 100 nM (Examples 60-137), 0.1 µM.

Sequence of PI3kδ (O00329 whole entry): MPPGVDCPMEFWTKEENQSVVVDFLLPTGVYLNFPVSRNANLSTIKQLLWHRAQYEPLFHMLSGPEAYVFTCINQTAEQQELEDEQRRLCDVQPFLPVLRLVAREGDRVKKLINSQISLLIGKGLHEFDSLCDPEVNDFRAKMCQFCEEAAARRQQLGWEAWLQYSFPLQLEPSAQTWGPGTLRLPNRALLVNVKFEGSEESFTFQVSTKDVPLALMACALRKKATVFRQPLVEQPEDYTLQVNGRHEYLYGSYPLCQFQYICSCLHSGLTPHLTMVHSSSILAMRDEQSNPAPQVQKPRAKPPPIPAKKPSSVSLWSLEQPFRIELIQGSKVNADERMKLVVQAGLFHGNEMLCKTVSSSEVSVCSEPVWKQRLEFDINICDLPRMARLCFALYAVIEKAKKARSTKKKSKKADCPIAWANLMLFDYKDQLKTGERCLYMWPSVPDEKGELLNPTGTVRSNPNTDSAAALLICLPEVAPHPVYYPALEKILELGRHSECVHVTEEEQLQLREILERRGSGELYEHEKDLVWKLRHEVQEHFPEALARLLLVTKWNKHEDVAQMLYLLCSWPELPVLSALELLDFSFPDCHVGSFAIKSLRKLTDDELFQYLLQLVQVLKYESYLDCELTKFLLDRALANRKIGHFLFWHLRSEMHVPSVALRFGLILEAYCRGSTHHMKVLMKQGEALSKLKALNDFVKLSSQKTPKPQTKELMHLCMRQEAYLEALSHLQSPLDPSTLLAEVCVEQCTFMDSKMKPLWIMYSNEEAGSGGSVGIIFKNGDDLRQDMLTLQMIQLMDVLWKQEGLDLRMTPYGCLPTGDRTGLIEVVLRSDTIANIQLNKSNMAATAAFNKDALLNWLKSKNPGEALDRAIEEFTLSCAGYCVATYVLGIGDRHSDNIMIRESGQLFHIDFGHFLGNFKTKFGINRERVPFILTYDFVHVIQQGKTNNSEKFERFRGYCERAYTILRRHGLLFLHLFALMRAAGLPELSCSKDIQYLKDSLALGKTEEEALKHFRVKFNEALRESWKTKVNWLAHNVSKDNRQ
Sequence of PI3kδ (P27986 whole entry partner): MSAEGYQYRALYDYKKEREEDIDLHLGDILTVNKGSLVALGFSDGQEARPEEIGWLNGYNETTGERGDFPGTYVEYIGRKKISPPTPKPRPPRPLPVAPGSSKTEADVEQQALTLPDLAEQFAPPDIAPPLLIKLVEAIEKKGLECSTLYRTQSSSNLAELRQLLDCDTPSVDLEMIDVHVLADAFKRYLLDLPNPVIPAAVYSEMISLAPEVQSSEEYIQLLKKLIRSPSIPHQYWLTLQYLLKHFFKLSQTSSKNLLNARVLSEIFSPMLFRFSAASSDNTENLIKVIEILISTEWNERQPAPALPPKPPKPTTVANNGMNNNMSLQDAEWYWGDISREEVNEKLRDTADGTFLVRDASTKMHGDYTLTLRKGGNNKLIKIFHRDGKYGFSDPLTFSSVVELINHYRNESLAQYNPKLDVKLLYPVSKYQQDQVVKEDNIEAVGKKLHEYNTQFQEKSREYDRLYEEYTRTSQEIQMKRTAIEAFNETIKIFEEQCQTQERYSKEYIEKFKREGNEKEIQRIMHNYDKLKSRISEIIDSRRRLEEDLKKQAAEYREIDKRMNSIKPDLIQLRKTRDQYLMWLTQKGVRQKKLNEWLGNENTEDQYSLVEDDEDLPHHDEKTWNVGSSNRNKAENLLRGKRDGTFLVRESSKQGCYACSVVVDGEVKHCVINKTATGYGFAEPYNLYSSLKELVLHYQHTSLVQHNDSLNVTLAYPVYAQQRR
Sequence of PI3kα (P42336 whole entry): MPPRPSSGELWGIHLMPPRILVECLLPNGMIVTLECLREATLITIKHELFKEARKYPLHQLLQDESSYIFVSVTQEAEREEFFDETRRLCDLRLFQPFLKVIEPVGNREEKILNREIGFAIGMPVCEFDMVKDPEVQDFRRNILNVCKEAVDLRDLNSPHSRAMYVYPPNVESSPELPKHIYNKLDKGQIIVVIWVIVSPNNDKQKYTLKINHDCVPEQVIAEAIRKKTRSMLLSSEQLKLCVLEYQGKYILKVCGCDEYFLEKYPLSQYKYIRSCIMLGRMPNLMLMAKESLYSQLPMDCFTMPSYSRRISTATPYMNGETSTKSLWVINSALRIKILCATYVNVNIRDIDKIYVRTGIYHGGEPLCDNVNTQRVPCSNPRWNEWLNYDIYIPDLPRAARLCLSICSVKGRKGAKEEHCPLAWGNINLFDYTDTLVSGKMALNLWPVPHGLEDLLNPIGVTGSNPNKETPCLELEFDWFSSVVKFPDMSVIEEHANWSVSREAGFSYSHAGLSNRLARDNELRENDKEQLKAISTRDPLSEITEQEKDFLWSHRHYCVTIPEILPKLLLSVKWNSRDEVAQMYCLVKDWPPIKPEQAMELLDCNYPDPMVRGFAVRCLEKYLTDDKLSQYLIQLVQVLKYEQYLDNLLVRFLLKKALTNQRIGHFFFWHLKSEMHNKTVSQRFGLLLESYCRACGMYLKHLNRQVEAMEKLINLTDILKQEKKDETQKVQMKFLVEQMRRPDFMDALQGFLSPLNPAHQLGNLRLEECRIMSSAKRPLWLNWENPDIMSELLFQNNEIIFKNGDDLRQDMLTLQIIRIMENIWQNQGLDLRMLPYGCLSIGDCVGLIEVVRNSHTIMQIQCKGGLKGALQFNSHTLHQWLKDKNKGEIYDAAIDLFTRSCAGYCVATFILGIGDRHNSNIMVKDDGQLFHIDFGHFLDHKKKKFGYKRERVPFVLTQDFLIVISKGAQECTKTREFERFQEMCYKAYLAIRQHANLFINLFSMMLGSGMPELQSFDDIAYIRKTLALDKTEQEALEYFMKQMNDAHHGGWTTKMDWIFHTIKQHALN
Sequence of PI3kα (P27986 whole entry partner): as the sequence (P27986 whole entry partner) above
Sequence of PI3kβ (P42338 whole entry): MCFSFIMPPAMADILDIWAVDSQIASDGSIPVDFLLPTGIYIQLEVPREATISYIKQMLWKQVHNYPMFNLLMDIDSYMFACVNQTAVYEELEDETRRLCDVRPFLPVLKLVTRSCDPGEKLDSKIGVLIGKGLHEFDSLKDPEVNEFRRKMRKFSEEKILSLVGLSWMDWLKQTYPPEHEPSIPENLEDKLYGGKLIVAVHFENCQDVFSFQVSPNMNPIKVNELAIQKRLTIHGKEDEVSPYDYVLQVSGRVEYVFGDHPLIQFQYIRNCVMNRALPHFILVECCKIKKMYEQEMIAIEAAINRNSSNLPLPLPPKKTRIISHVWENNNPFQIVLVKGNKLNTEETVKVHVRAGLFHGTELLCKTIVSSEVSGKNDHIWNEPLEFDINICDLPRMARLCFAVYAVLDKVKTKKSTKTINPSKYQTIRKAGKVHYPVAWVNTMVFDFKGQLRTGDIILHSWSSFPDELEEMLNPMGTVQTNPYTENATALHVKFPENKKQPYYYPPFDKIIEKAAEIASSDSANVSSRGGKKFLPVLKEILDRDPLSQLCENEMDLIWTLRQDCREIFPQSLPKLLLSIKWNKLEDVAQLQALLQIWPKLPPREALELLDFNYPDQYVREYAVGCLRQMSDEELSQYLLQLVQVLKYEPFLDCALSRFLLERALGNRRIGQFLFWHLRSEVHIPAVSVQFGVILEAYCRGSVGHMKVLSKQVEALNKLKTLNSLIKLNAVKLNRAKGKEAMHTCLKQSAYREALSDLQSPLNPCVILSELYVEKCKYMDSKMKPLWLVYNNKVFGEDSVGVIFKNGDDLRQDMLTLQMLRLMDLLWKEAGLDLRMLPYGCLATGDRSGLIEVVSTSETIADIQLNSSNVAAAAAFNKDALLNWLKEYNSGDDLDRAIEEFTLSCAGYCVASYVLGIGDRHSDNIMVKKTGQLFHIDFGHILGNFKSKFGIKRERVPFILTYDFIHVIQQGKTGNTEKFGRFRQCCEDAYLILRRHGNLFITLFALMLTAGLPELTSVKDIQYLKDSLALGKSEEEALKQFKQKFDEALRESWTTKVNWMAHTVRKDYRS
Sequence of PI3kβ (P27986 whole entry partner): as the sequence (P27986 whole entry partner) above
Sequence of PI3kγ (P48736 whole entry): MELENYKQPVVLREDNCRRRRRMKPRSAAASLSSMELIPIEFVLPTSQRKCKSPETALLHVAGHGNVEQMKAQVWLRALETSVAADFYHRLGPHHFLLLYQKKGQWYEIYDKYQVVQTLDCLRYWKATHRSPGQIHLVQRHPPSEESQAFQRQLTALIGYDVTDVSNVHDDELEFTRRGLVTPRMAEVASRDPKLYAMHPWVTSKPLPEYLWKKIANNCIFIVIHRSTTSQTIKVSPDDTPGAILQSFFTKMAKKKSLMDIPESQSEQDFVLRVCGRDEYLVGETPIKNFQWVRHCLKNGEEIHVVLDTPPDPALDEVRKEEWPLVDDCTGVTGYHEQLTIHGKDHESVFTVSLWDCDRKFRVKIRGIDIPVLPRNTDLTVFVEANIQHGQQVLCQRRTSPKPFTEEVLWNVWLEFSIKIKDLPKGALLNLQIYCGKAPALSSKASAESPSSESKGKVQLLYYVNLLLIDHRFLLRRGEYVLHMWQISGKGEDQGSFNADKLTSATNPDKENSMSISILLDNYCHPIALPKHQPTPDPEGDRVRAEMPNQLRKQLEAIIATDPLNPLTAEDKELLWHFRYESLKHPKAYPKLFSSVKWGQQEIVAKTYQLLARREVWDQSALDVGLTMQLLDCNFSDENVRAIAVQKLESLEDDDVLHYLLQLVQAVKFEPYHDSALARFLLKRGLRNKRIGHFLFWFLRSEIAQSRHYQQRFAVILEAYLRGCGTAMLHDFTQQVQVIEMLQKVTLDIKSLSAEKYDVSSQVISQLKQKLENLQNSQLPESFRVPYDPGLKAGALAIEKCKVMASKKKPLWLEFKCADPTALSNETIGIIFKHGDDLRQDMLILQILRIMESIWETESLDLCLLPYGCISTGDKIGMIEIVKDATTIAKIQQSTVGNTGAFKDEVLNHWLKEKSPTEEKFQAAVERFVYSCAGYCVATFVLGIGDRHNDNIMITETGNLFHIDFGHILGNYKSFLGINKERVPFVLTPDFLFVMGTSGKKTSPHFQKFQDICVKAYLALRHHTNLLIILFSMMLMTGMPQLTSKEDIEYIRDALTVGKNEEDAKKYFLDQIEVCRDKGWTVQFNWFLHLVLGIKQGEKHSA

As to `Cc1nn(C(C)c2oc3cccc(F)c3c(=O)c2-c2cccc(F)c2)c2ncnc(N)c12` (stereo not shown) [Example 33, 2-(1-(4-amino-3-methyl-1H-pyrazolo[3,4-d]pyrimidin-1-yl)ethyl)-5-fluoro-3-(3-fluorophenyl)-4H-chromen-4-one], the figures for the inhibition at 1 µM in test [1] and in test [4] were 0 to 25% and 25 to 50%, respectively. The inhibition at 0.3 µM in test [2] and in test [3] was 50 to 75% in each case.
`CC(c1oc2cccc(F)c2c(=O)c1-c1cccc(F)c1)n1nc(-c2cccc(NS(C)(=O)=O)c2)c2c(N)ncnc21` (stereo not shown) [Example 128, N-(3-(4-amino-1-(1-(5-fluoro-3-(3-fluorophenyl)-4-oxo-4H-chromen-2-yl)ethyl)-1H-pyrazolo[3,4-d]pyrimidin-3-yl)phenyl)methanesulfonamide]: the figures for the inhibition at 1 µM in test [1] and in test [4] were 25 to 50% and 50 to 75%, respectively. Also, the 50% inhibitory concentration (IC50) in test [2] and in test [3] was 50 to 100 nM each time. Moreover, the results for the inhibition at 0.1 µM in test [2] (100 nM (Examples 60-137)) and in test [3] (100 nM (Examples 60-137)) were 25 to 50% and 50 to 75%, respectively.
As for `Cc1n[nH]c2cc(-c3nn([C@@H](C)c4oc5cccc(F)c5c(=O)c4-c4cccc(F)c4)c4ncnc(N)c34)ccc12` [Example 9a, (+)-2-(1-(4-amino-3-(3-methyl-1H-indazol-6-yl)-1H-pyrazolo[3,4-d]pyrimidin-1-yl)ethyl)-5-fluoro-3-(3-fluorophenyl)-4H-chromen-4-one], the inhibition – broadly, how much of the control response was suppressed – at 1 µM in test [1] lay in the range of 0 to 25%; in test [4], 25 to 50%. The IC50 in test [2] and in test [3] was not above 50 nM in each case.
Take `CC(C)Oc1ccc(-c2nn(C(C)c3oc4cccc(F)c4c(=O)c3-c3cccc(F)c3)c3ncnc(N)c23)cc1F` (single isomer, unassigned; (-)) [Example 8, (−)-2-(1-(4-amino-3-(3-fluoro-4-isopropoxyphenyl)-1H-pyrazolo[3,4-d]pyrimidin-1-yl)ethyl)-5-fluoro-3-(3-fluorophenyl)-4H-chromen-4-one]: the “% inhibition (PI3kα) 1 uM” value in test [1] is on record as “D (D=0 to 25%)”. For the same compound, the concentration for half-maximal inhibition (IC50) – broadly, the concentration that inhibits the measured activity by half – in test [2] was not above 50 nM; in test [3] it was not above 50 nM; in test [4] it was 300 to 500 nM. Besides, the “% inhibition (PI3kβ) 1 uM” value in test [4] is given as “B (B=>50 to 75%)”.
With `CC(C)Oc1ccc(-c2nn(C(C)c3oc4cccc(F)c4c(=O)c3-c3cccc(F)c3)c3ncnc(N)c23)cc1F` (stereo not shown) [Example 6, 2-(1-(4-amino-3-(3-fluoro-4-isopropoxyphenyl)-1H-pyrazolo[3,4-d]pyrimidin-1-yl)ethyl)-5-fluoro-3-(3-fluorophenyl)-4H-chromen-4-one], the inhibition at 1 µM in test [1] is 0 to 25%; in test [4], 25 to 50%. The IC50 in test [1] (numeric values) is more than 10000 nM; in test [2], 50 to 100 nM; in test [3], not above 50 nM. For the same compound, the inhibition at 0.3 µM in test [2] and in test [3] was 75 to 100% throughout.
With `CC(c1oc2cccc(F)c2c(=O)c1-c1cccc(F)c1)n1nc(-c2ccc(OC3CCOCC3)c(F)c2)c2c(N)ncnc21` (stereo not shown) [Example 19, 2-(1-(4-amino-3-(3-fluoro-4-(tetrahydro-2H-pyran-4-yloxy)phenyl)-1H-pyrazolo[3,4-d]pyrimidin-1-yl)ethyl)-5-fluoro-3-(3-fluorophenyl)-4H-chromen-4-one], the inhibition at 1 µM in test [1] and in test [4] was 25 to 50% throughout. Moreover, the inhibition at 0.3 µM in test [2] was 75 to 100%; in test [3], 50 to 75%.
With `CC(c1oc2cccc(F)c2c(=O)c1-c1cccc(F)c1)n1ncc2c(N)ncnc21` (stereo not shown) [Example 16, 2-(1-(4-amino-1H-pyrazolo[3,4-d]pyrimidin-1-yl)ethyl)-5-fluoro-3-(3-fluorophenyl)-4H-chromen-4-one], the inhibition at 1 µM in test [1] lay in the range of 25 to 50%; in test [4], 0 to 25%. Also, the inhibition at 0.3 µM in test [2] fell in the range of 0 to 25%; in test [3] it was 75 to 100%. In test [3], this compound gave an IC50 of 50 to 100 nM.
In the case of `CCc1nn(C(C)c2oc3cccc(F)c3c(=O)c2-c2cccc(F)c2)c2ncnc(N)c12` (stereo not shown) [Example 34, 2-(1-(4-amino-3-ethyl-1H-pyrazolo[3,4-d]pyrimidin-1-yl)ethyl)-5-fluoro-3-(3-fluorophenyl)-4H-chromen-4-one], the results for the inhibition at 1 µM in test [1] and in test [4] were 0 to 25% and 25 to 50%, respectively. Also, the inhibition at 0.3 µM in test [2] and in test [3] was 50 to 75% throughout.
On to `CC(C)Oc1ccc(-c2nn(C(C)c3oc4cccc(F)c4c(=O)c3-c3ccc(F)cc3)c3ncnc(N)c23)cc1F` (stereo not shown) [Example 12, 2-(1-(4-amino-3-(3-fluoro-4-isopropoxyphenyl)-1H-pyrazolo[3,4-d]pyrimidin-1-yl)ethyl)-5-fluoro-3-(4-fluorophenyl)-4H-chromen-4-one], for which the “% inhibition (PI3kα) 1 uM” value in test [1] is on record as “D (D=0 to 25%)”. Besides, in test [2], the IC50 lay within 100 to 300 nM and the inhibition at 0.3 µM is 75 to 100%. The compound further returned an inhibition at 0.3 µM in test [3] of 25 to 50%. In addition, the “% inhibition (PI3kβ) 1 uM” value in test [4] is recorded as “C (C=>25 to 50%)”.
On to `CC(C)Nc1ccc(-c2nn(C(C)c3oc4cccc(F)c4c(=O)c3-c3cccc(F)c3)c3ncnc(N)c23)cc1F` (stereo not shown) [Example 23, 2-(1-(4-amino-3-(3-fluoro-4-(isopropylamino)phenyl)-1H-pyrazolo[3,4-d]pyrimidin-1-yl)ethyl)-5-fluoro-3-(3-fluorophenyl)-4H-chromen-4-one], for which the values for the inhibition at 1 µM in test [1] and in test [4] were 0 to 25% and 25 to 50%, respectively. In addition, the IC50 in test [2] was not above 50 nM; in test [3], 50 to 100 nM. The inhibition at 0.3 µM in test [2] and in test [3] was 75 to 100% each time.
For the compound `CC(c1oc2cccc(F)c2c(=O)c1-c1cccc(F)c1)n1cnc2c(N(C)C)ncnc21` (stereo not shown) [Example 110, 2-(1-(6-(dimethylamino)-9H-purin-9-yl)ethyl)-5-fluoro-3-(3-fluorophenyl)-4H-chromen-4-one], the inhibition at 1 µM lay within 0 to 25% in test [1] and 25 to 50% in test [4]. For the same compound, the concentration for half-maximal inhibition (IC50) was 50 to 100 nM in test [2] and not above 50 nM in test [3]. The “% inhibition (PI3kγ) 100 nM” value in test [2] (setting [5]) is “B (B=>50 to 75%)”. Also, the “% inhibition (PI3kδ) 100 nM” value in test [3] (setting [5]) is “A (A=>75 to 100%)”.
With `CC(=O)c1ccc(-c2nn(C(C)c3oc4cccc(F)c4c(=O)c3-c3cccc(F)c3)c3ncnc(N)c23)cc1F` (stereo not shown) [Example 124, 2-(1-(3-(4-acetyl-3-fluorophenyl)-4-amino-1H-pyrazolo[3,4-d]pyrimidin-1-yl)ethyl)-5-fluoro-3-(3-fluorophenyl)-4H-chromen-4-one], the inhibition at 1 µM in test [1] lay in the range of 25 to 50%; in test [4], 0 to 25%. The inhibition at 0.1 µM in test [2] (100 nM (Examples 60-137)) lay in the range of 0 to 25%; in test [3] (100 nM (Examples 60-137)), 25 to 50%.
In the case of `CC(C)c1n[nH]c2cc(-c3nn(C(C)c4oc5cccc(F)c5c(=O)c4-c4cccc(F)c4)c4ncnc(N)c34)ccc12` (stereo not shown) [Example 20, 2-(1-(4-amino-3-(3-isopropyl-1H-indazol-6-yl)-1H-pyrazolo[3,4-d]pyrimidin-1-yl)ethyl)-5-fluoro-3-(3-fluorophenyl)-4H-chromen-4-one], the inhibition at 1 µM in test [1] is 0 to 25%; in test [4], 25 to 50%. For the same compound, the inhibition at 0.3 µM in test [2] was in the range of 0 to 25%; in test [3], 75 to 100%. The compound also showed an IC50 in test [3] of 50 to 100 nM.
For the compound `CC(c1oc2cccc(F)c2c(=O)c1-c1cccc(F)c1)n1nc(-c2ccc(N3CCN(C)CC3)c(F)c2)c2c(N)ncnc21` (stereo not shown) [Example 27, 2-(1-(4-amino-3-(3-fluoro-4-(4-methylpiperazin-1-yl)phenyl)-1H-pyrazolo[3,4-d]pyrimidin-1-yl)ethyl)-5-fluoro-3-(3-fluorophenyl)-4H-chromen-4-one], the inhibition at 1 µM in test [1] was 0 to 25%; in test [4], 25 to 50%. For the same compound, the inhibition at 0.3 µM in test [2] is 50 to 75%; in test [3], 25 to 50%.
As to `CC(c1oc2cccc(F)c2c(=O)c1-c1cccc(F)c1)n1nc(N2CCOCC2)c2c(N)ncnc21` (stereo not shown) [Example 37, 2-(1-(4-amino-3-morpholino-1H-pyrazolo[3,4-d]pyrimidin-1-yl)ethyl)-5-fluoro-3-(3-fluorophenyl)-4H-chromen-4-one], the inhibition at 1 µM in test [1] is 0 to 25%; in test [4], 25 to 50%. Also, the inhibition at 0.3 µM lay in the range of 50 to 75% in test [2] and 0 to 25% in test [3].
